18 molecules from patent publication US20230096766A1, “AMINO ACID HAVING FUNCTIONAL GROUP CAPABLE OF INTERMOLECULAR HYDROGEN BONDING, PEPTIDE COMPOUND CONTAINING SAME AND METHOD FOR PRODUCTION THEREOF” (Chugai Seiyaku Kabushiki Kaisha, priority 2018, published 2023) can be followed below.

*1 amine or outer side, *2 acyl side, *3 side chain or, on linkers, in order; H or OH if unused. Where a SMILES comes first, the peptide text is derived from it. Bridges are numbered along the chain shown (N, C = ends). [ ]: non-standard residue; d: D form. The star is where a group is joined. ξ: configuration not given here. Tyr(3-F) = N[C@@H](Cc1ccc(O)c(F)c1)C(=O)O; NMeW = CN[C@@H](Cc1c[nH]c2ccccc12)C(=O)O; NMeF = CN[C@@H](Cc1ccccc1)C(=O)O; NMeGABA = CN(CCCC(=O)[*:2])[*:1]; NMeI = CC[C@H](C)[C@H](NC)C(=O)O; NMeξIle = CC[C@H](C)C(NC)C(=O)O; NMeL = CN[C@@H](CC(C)C)C(=O)O; NMeV = CN[C@H](C(=O)O)C(C)C; NMeA = CN[C@@H](C)C(=O)O; Piperidide = C1CCN(*)CC1; Sar = CNCC(=O)O; tBu = CC(C)(C)*

A short description of this data set: in vitro. As to conditions: human, Caco-2, Caco-2 (cm/sec).
For `CC[C@H](C)C1C(=O)N[C@@H]([C@@H](C)O)C(=O)N(C)CC(=O)N(C)[C@@H](CC(C)C)C(=O)N[C@H](C(=O)N2CCCCC2)CC(=O)N(C)[C@@H](C)C(=O)N[C@@H](CC(C)C)C(=O)N(C)[C@@H](CC(C)C)C(=O)N(C)[C@@H](Cc2c[nH]c3ccccc23)C(=O)N[C@@H](C(C)C)C(=O)N(C)[C@@H](CC(C)C)C(=O)N1C` (stereo partly drawn) [pd102] ([NMeA]L[NMeL][NMeW]V[NMeL][NMeξIle]T[Sar][NMeL]D-Piperidide; lactam N-11), the Papp – broadly, the rate of passage across a membrane or cell layer, normalised by area and donor concentration – worked out at 1.1 ×10⁻⁶ cm/s.

Regarding `CC[C@H](C)[C@@H]1NC(=O)[C@H](CC(C)C)N(C)C(=O)CN(C)C(=O)C[C@@H](C(=O)N2CCCCC2)NC(=O)[C@H](C)N(C)C(=O)[C@H](COC(C)(C)C)NC(=O)[C@H](CC(C)C)N(C)C(=O)[C@H](CC(C)C)N(C)C(=O)CN(C)C(=O)[C@H](Cc2c[nH]c3ccccc23)NC(=O)[C@H](CC(C)C)N(C)C1=O` [pd103] ([Sar][NMeL]I[NMeL]W[Sar][NMeL][NMeL]S(tBu)[NMeA]D-Piperidide; lactam N-11), the Papp came to 0.093 ×10⁻⁶ cm/s.

Regarding `CC(C)C[C@H]1C(=O)N(C)[C@@H](Cc2c[nH]c3ccccc23)C(=O)N(C)[C@@H](Cc2ccccc2)C(=O)N[C@@H]([C@@H](C)O)C(=O)N(C)[C@@H](C)C(=O)N(C)[C@@H](CC(C)C)C(=O)N[C@H](C(=O)N2CCCCC2)CC(=O)N(C)[C@@H](C)C(=O)N(C)[C@@H](CC(C)C)C(=O)N(C)[C@@H](CC(C)C)C(=O)N[C@@H](C)C(=O)N1C` [pd104] ([NMeA][NMeL][NMeL]A[NMeL][NMeW][NMeF]T[NMeA][NMeL]D-Piperidide; lactam N-11), the Papp is 0.025 ×10⁻⁶ cm/s. Turning to `CC(C)C[C@H]1C(=O)N(C)[C@@H](CC(C)C)C(=O)N(C)[C@@H](Cc2c[nH]c3ccccc23)C(=O)N[C@@H]([C@@H](C)O)C(=O)N(C)[C@@H](C)C(=O)N(C)[C@@H](CC(C)C)C(=O)N[C@H](C(=O)N2CCCCC2)CC(=O)N(C)[C@@H](C)C(=O)N(C)[C@@H](CC(C)C)C(=O)N(C)[C@@H](CC(C)C)C(=O)N[C@@H](C)C(=O)N1C` [pd105] ([NMeA][NMeL][NMeL]A[NMeL][NMeL][NMeW]T[NMeA][NMeL]D-Piperidide; lactam N-11), the Papp was determined as 0.28 ×10⁻⁶ cm/s. With `CC(C)C[C@@H]1NC(=O)[C@H](Cc2c[nH]c3ccccc23)N(C)C(=O)[C@@H](C(C)C)NC(=O)C[C@@H](C(=O)N2CCCCC2)NC(=O)[C@H](CC(C)C)N(C)C(=O)[C@H](CC(C)C)N(C)C(=O)[C@H](COC(C)(C)C)NC(=O)[C@H](CC(C)C)N(C)C(=O)CN(C)C(=O)[C@H]([C@@H](C)O)NC(=O)[C@H](CC(C)C)N(C)C1=O` [pd106] ([dV][NMeW]L[NMeL]T[Sar][NMeL]S(tBu)[NMeL][NMeL]D-Piperidide; lactam N-11) the figure was 0.36 ×10⁻⁶ cm/s. Next, `CC[C@H](C)[C@@H]1NC(=O)[C@H](CC(C)C)N(C)C(=O)CCCN(C)C(=O)C[C@@H](C(=O)N2CCCCC2)NC(=O)[C@H](CC(C)C)N(C)C(=O)[C@H](CC(C)C)N(C)C(=O)[C@H]([C@@H](C)O)NC(=O)[C@H](CC(C)C)N(C)C(=O)[C@H](COC(C)(C)C)NC(=O)[C@H](Cc2c[nH]c3ccccc23)N(C)C(=O)[C@H](Cc2ccccc2)N(C)C1=O` [pd107] ([NMeGABA][NMeL]I[NMeF][NMeW]S(tBu)[NMeL]T[NMeL][NMeL]D-Piperidide; lactam N-11): 0.17 ×10⁻⁶ cm/s; `CC[C@H](C)[C@@H]1NC(=O)[C@H](CC(C)C)N(C)C(=O)[C@@H](C)NC(=O)C[C@@H](C(=O)N2CCCCC2)NC(=O)[C@H](C(C)C)N(C)C(=O)[C@H](CC(C)C)N(C)C(=O)[C@H](COC(C)(C)C)NC(=O)[C@H](CC(C)C)N(C)C(=O)CN(C)C(=O)[C@H](Cc2c[nH]c3ccccc23)NC(=O)[C@H](CC(C)C)N(C)C1=O` [pd108] ([dA][NMeL]I[NMeL]W[Sar][NMeL]S(tBu)[NMeL][NMeV]D-Piperidide; lactam N-11): 0.87 ×10⁻⁶ cm/s. As for `CC(C)C[C@H]1C(=O)N(C)[C@@H](Cc2c[nH]c3ccccc23)C(=O)N(C)[C@@H](Cc2ccccc2)C(=O)N[C@@H]([C@@H](C)O)C(=O)N(C)[C@@H](C)C(=O)N(C)[C@@H](CC(C)C)C(=O)N[C@H](C(=O)N2CCCCC2)CC(=O)N(C)[C@@H](C)C(=O)N(C)[C@@H](CC(C)C)C(=O)N(C)[C@@H](CC(C)C)C(=O)N[C@@H](C(C)C)C(=O)N1C` [pd109] ([NMeA][NMeL][NMeL]V[NMeL][NMeW][NMeF]T[NMeA][NMeL]D-Piperidide; lactam N-11), the Papp amounted to 0.0092 ×10⁻⁶ cm/s. Molecule `CC[C@H](C)[C@@H]1NC(=O)[C@H](CC(C)C)N(C)C(=O)CCCN(C)C(=O)C[C@@H](C(=O)N2CCCCC2)NC(=O)[C@H](CC(C)C)N(C)C(=O)[C@H](C)N(C)C(=O)[C@H](Cc2c[nH]c3ccccc23)NC(=O)[C@H](CC(C)C)N(C)C(=O)[C@H](COC(C)(C)C)NC(=O)[C@H](CC(C)C)N(C)C(=O)[C@H](CC(C)C)N(C)C1=O` [pd110] ([NMeGABA][NMeL]I[NMeL][NMeL]S(tBu)[NMeL]W[NMeA][NMeL]D-Piperidide; lactam N-11) yielded an apparent permeability (Papp) of 0.29 ×10⁻⁶ cm/s. With `CC[C@H](C)[C@H]1C(=O)N[C@@H]([C@@H](C)O)C(=O)N(C)CC(=O)N(C)[C@@H](CC(C)C)C(=O)N[C@H](C(=O)N2CCCCC2)CC(=O)N(C)[C@@H](CC(C)C)C(=O)N[C@@H](CC(C)C)C(=O)N(C)[C@@H](CC(C)C)C(=O)N(C)[C@@H](Cc2c[nH]c3ccccc23)C(=O)N[C@@H](CC(C)C)C(=O)N(C)[C@@H](Cc2ccccc2)C(=O)N1C` [pd111] ([NMeL]L[NMeL][NMeW]L[NMeF][NMeI]T[Sar][NMeL]D-Piperidide; lactam N-11) the figure was 0.16 ×10⁻⁶ cm/s; with `CC[C@H](C)[C@@H]1NC(=O)[C@H](Cc2ccccc2)N(C)C(=O)[C@@H](C)NC(=O)C[C@@H](C(=O)N2CCCCC2)NC(=O)[C@H](CC(C)C)N(C)C(=O)[C@H](C)N(C)C(=O)[C@H](COC(C)(C)C)NC(=O)[C@H](C)N(C)C(=O)CN(C)C(=O)[C@H](Cc2ccc(O)cc2)NC(=O)[C@H](CC(C)C)N(C)C1=O` [pd112] ([dA][NMeF]I[NMeL]Y[Sar][NMeA]S(tBu)[NMeA][NMeL]D-Piperidide; lactam N-11), 0.11 ×10⁻⁶ cm/s; with `CC(C)C[C@@H]1NC(=O)[C@H](CC(C)C)N(C)C(=O)[C@H](C)N(C)C(=O)[C@@H](C(C)C)NC(=O)C[C@@H](C(=O)N2CCCCC2)NC(=O)[C@H]([C@@H](C)O)NC(=O)[C@H](C)N(C)C(=O)[C@H](C)N(C)C(=O)[C@H](CC(C)C)N(C)C(=O)[C@H](Cc2ccc(O)c(F)c2)NC(=O)[C@H](Cc2ccccc2)N(C)C1=O` [pd113] ([dV][NMeA][NMeL]L[NMeF][Tyr(3-F)][NMeL][NMeA][NMeA]TD-Piperidide; lactam N-11), 0.029 ×10⁻⁶ cm/s. Next, `CC(C)C[C@H]1C(=O)N[C@H](C(=O)N2CCCCC2)CC(=O)N(C)CCCC(=O)N(C)[C@@H](CC(C)C)C(=O)N[C@@H](Cc2ccc(O)c(F)c2)C(=O)N(C)[C@@H](CC(C)C)C(=O)N(C)[C@@H](Cc2ccccc2)C(=O)N[C@@H](COC(C)(C)C)C(=O)N(C)[C@@H](CC(C)C)C(=O)N[C@@H]([C@@H](C)O)C(=O)N(C)CC(=O)N1C` [pd114] ([NMeGABA][NMeL][Tyr(3-F)][NMeL][NMeF]S(tBu)[NMeL]T[Sar][NMeL]D-Piperidide; lactam N-11): 0.17 ×10⁻⁶ cm/s; `CC(C)C[C@H]1C(=O)N[C@@H](Cc2ccc(O)cc2)C(=O)N(C)CC(=O)N(C)[C@@H](C)C(=O)N(C)[C@@H](CC(C)C)C(=O)N[C@@H](COC(C)(C)C)C(=O)N(C)[C@@H](C(C)C)C(=O)N[C@H](C(=O)N2CCCCC2)CC(=O)N(C)CC(=O)N(C)[C@@H](Cc2ccccc2)C(=O)N[C@@H](C(C)C)C(=O)N1C` [pd115] ([Sar][NMeF]V[NMeL]Y[Sar][NMeA][NMeL]S(tBu)[NMeV]D-Piperidide; lactam N-11): 0.22 ×10⁻⁶ cm/s. With `CC[C@H](C)[C@H]1C(=O)N[C@@H](Cc2ccc(O)cc2)C(=O)N(C)CC(=O)N(C)[C@@H](CC(C)C)C(=O)N[C@H](C(=O)N2CCCCC2)CC(=O)N(C)[C@@H](C)C(=O)N[C@@H](CC(C)C)C(=O)N(C)[C@@H](C)C(=O)N(C)[C@@H](Cc2ccccc2)C(=O)N[C@@H](C(C)C)C(=O)N(C)[C@@H](C)C(=O)N1C` [pd116] ([NMeA]L[NMeA][NMeF]V[NMeA][NMeI]Y[Sar][NMeL]D-Piperidide; lactam N-11) the figure was 0.14 ×10⁻⁶ cm/s; with `CC[C@H](C)[C@@H]1NC(=O)[C@H](CC(C)C)N(C)C(=O)[C@@H](C)NC(=O)C[C@@H](C(=O)N2CCCCC2)NC(=O)[C@H](C(C)C)N(C)C(=O)[C@H](Cc2ccccc2)N(C)C(=O)[C@H](COC(C)(C)C)NC(=O)[C@H](CC(C)C)N(C)C(=O)CN(C)C(=O)[C@H](Cc2ccc(O)cc2)NC(=O)[C@H](C)N(C)C1=O` [pd117] ([dA][NMeL]I[NMeA]Y[Sar][NMeL]S(tBu)[NMeF][NMeV]D-Piperidide; lactam N-11), 0.56 ×10⁻⁶ cm/s.

Consider `CC(C)C[C@H]1NC(=O)C[C@@H](C(=O)N2CCCCC2)NC(=O)[C@H](C)N(C)C(=O)[C@H](CC(C)C)N(C)C(=O)[C@H](COC(C)(C)C)NC(=O)[C@H](CC(C)C)N(C)C(=O)CN(C)C(=O)[C@H]([C@@H](C)O)NC(=O)[C@H](CC(C)C)N(C)C(=O)[C@H](Cc2ccc(O)c(F)c2)NC(=O)[C@H](Cc2ccccc2)N(C)C1=O` [pd118] ([dL][NMeF][Tyr(3-F)][NMeL]T[Sar][NMeL]S(tBu)[NMeL][NMeA]D-Piperidide; lactam N-11), for which the Papp came to 0.2 ×10⁻⁶ cm/s. Next, `CC[C@H](C)[C@@H]1NC(=O)[C@H](CC(C)C)N(C)C(=O)CCCN(C)C(=O)C[C@@H](C(=O)N2CCCCC2)NC(=O)[C@H](CC(C)C)N(C)C(=O)[C@H](C)N(C)C(=O)[C@H]([C@@H](C)O)NC(=O)[C@H](CC(C)C)N(C)C(=O)[C@H](Cc2ccc(O)c(F)c2)NC(=O)[C@H](CC(C)C)N(C)C(=O)[C@H](Cc2ccccc2)N(C)C1=O` [pd119] ([NMeGABA][NMeL]I[NMeF][NMeL][Tyr(3-F)][NMeL]T[NMeA][NMeL]D-Piperidide; lactam N-11): 0.16 ×10⁻⁶ cm/s.
